Test results taken from paper PMC10156783, “Structural basis for catalysis of human choline/ethanolamine phosphotransferase 1” (Nature Communications, 2023).

Assays:
[1] = target: T1, hCEPT1 (human choline/ethanolamine phosphotransferase 1) (Homo sapiens, UniProt Q9Y6K0); experiment: isothermal titration calorimetry; cryo-EM structure of the complex; conditions: read-out: binding affinity
T1 construct: gene CEPT1
T1 sequence (Q9Y6K0 1-416): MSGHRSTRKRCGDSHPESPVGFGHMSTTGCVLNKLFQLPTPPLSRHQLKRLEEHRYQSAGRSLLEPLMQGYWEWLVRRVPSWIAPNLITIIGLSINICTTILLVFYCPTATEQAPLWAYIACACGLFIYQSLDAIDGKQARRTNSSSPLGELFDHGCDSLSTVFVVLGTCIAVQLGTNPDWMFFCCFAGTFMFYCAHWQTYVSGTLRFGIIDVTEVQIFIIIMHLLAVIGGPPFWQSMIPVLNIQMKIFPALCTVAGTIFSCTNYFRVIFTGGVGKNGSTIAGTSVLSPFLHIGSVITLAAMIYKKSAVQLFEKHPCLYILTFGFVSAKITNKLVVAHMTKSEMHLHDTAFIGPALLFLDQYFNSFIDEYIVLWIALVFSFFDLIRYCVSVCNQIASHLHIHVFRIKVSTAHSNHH

[2] = target: T1, hCEPT1 (human choline/ethanolamine phosphotransferase 1); conditions: co-substrate diacylglycerol in cholate/POPC micelles; Mg2+ 20 mM; pH 8.0; 37 °C
[3] = target: the molecule itself; experiment: cryo-EM structure; purified CEPT1 at about 15 mg/ml in 25 mM Tris pH 8.0, 150 mM NaCl, 0.005% GDN; alone (3.7 Å) and with 10 mM CDP-choline (3.8 Å); C2 symmetry applied, a similar map with C1

Molecule: C[N+](C)(C)CCOP(=O)(O)OP(=O)([O-])OC[C@H]1O[C@@H](n2ccc(N)nc2=O)[C@H](O)[C@@H]1O [CDP-choline]
- Kd [1]: 46 µM

Molecule: NCCOP(=O)(O)OP(=O)(O)OC[C@H]1O[C@@H](n2ccc(N)nc2=O)[C@H](O)[C@@H]1O [CDP-ethanolamine]
- HPLC assay of CMP release [2]: CMP release was approximately doubled when CDP-choline was used as the substrate compared with CDP-ethanolamine

B1: human choline/ethanolamine phosphotransferase 1 (CEPT1), full length (enzyme, UniProt Q9Y6K0 1-416, looked up)
chain: MSGHRSTRKRCGDSHPESPVGFGHMSTTGCVLNKLFQLPTPPLSRHQLKRLEEHRYQSAGRSLLEPLMQGYWEWLVRRVPSWIAPNLITIIGLSINICTTILLVFYCPTATEQAPLWAYIACACGLFIYQSLDAIDGKQARRTNSSSPLGELFDHGCDSLSTVFVVLGTCIAVQLGTNPDWMFFCCFAGTFMFYCAHWQTYVSGTLRFGIIDVTEVQIFIIIMHLLAVIGGPPFWQSMIPVLNIQMKIFPALCTVAGTIFSCTNYFRVIFTGGVGKNGSTIAGTSVLSPFLHIGSVITLAAMIYKKSAVQLFEKHPCLYILTFGFVSAKITNKLVVAHMTKSEMHLHDTAFIGPALLFLDQYFNSFIDEYIVLWIALVFSFFDLIRYCVSVCNQIASHLHIHVFRIKVSTAHSNHH
notes: residues 28-407 modelled in each protomer; Homodimer in the cryo-EM structures; membrane protein in GDN detergent; No removal of the tags is described; also called hCEPT1; CEPT1-A; source: FreeStyle 293-F suspension cells, transiently transfected, purified (anti-FLAG M2 resin, NTA resin, SEC in 0.005% GDN)
- stoichiometry N [3]: 2
